Read-outs that look alike come from different tables or passages of the source.

A word on the IC50: it is the concentration needed to halve the response being measured.

A short description of data set [1]: Solubility in saline (0.9% sodium chloride solution). Type of data set: physicochemical.
Another data set deals with MCF-7. Nature of the data set: MTT cytotoxicity assay, MCF-7. It counts as cell-based. Background: Tetrazolium dyes change colour on reduction, which living cells bring about.
The next data set has as its system Hela. The experiment in a line: MTT cytotoxicity assay, Hela. It counts as cell-based.
The subject of data set [2] is cisplatin-resistant lung cancer (A549cisR) cells. Nature of the data set: MTT cytotoxicity assay, A549cisR. It counts as cell-based.
Procedure: (§2) The cytotoxicity of C1–C3 was determined using an MTT (3-(4,5-dimethylthiazol-2-yl)-2,5-diphenyltetrazolium bromide) assay on various cancer cells.
For the next data set, the system named is WI-38. The experiment in a line: MTT cytotoxicity assay, WI-38. Type of data set: cell-based.
Data set [3] relates to A549 cells. Nature of the data set: MTT cytotoxicity assay, A549.
Procedure: as §2
For data set [4], the system named is A549 cells. Nature of the data set: Wound-healing assay (cell migration). Type of data set: cell-based. To be noted: 2 μM and 4 μM, 24 h. As to the method:
(§1) Cell migration is crucial to cancer development and metastasis; metastasis is a major cause of many cancer-related deaths. The migration is very usually assessed by the application of the wound-healing assay, which involves the creation of an artificial gap in a cancer cell monolayer, followed by observation of the area covered with migrating cells. Therefore, the inhibiting effect of C1 on cancer cell migration was evaluated using a wound-healing assay. […] In addition, the effect of C1 on A549 cell invasion was investigated using a transwell assay.
To evaluate the impact of C1 on cell migration, a wound-healing assay was carried out. A549 cells were seeded into 6-well plates and incubated overnight at 37 °C. C1 was dissolved in saline. Subsequently, scratch wounds were performed in the monolayer of cells using sterile toothpicks, and then the cells were treated with the Cu complex (2 μM and 4 μM). The cells were captured using an inverted microscope at 0 and 24 h.

The test system of data set [5] is A549 cells. The experiment in a line: Transwell invasion assay. It counts as cell-based. To be noted: 24 h. As to the method:
as §1
The effect of C1 on tumor cell invasiveness was assessed by transwell assay. In brief, the transwell chamber was pre-coated with 70 μL diluted matrigel for 8 h at 37 °C. A549 cells were seeded to the upper chamber, and then C1 was added to the chamber. After 24 h of incubation, the chambers were washed, stained with 0.5% crystal violet for 20 min, and captured using an inverted microscope.

Data set [6] relates to A549 cells. The experiment in a line: Mitochondrial membrane potential (JC-1, flow cytometry). Type of data set: cell-based. To be noted: C1 8 μM, 24 h. As to the method: Mitochondria play a key role in death signals through intrinsic and extrinsic apoptosis. Therefore, after exposure to C1, A549 cells were stained with a JC-1 probe to evaluate the mitochondrial membrane potential (ΔΨm) using flow cytometry.
Exponentially growing A549 cells were cultured in 6-well plates. Subsequently, C1 (4 μM and 8 μM) was exposed to the cells for 24 h. The cells were stained with JC-1 probe and analyzed by flow cytometry.
For orientation: In flow cytometry, cells or beads pass a laser one at a time.

Data set [7] concerns A549 cells. The experiment in a line: Cell apoptosis analysis (Annexin V/PI, flow cytometry). It counts as cell-based. The following applies: 24 h, control 4.0%. As to the method: Then, the effect of C1 on A549 cells apoptosis was stained with Annexin V/PI and analyzed using flow cytometry.
The A549 cells were placed in 6-well plates and incubated overnight. The cells were treated with C1 (4 μM and 8 μM) and incubated for 24 h. Subsequently, the cells were harvested and stained with Annexin V/PI for 20 min. The samples were detected by flow cytometry.

The subject of the next data set is CT-DNA. Nature of the data set: EB-DNA fluorescence-quenching assay. The following applies: C1 0−16 μM, 8 μM EB, 10 μM CT-DNA, pH 7.2 Tris–HCl. It counts as binding. The method, then: Competitive studies with ethidium bromide (EB) have been widely used in fluorescence-quenching assays to evaluate the interaction between DNA and small molecules. Therefore, to further explore the binding property of C1 and DNA, fluorescence quenching was carried out to explore the interaction mode.
The fluorescence spectrum was performed to measure the interaction mode of C1 (0−16 μM) and EB-DNA (8 μM ethidium bromide added into 10 μM CT-DNA) in a pH 7.2 Tris–HCl buffer. The EB-DNA was excited at 510 nm, and for the emission spectra, the emission range was set to 530–750 nm. C1 was gradually added to the EB-DNA solution.

The subject of data set [8] is A549 cells. Nature of the data set: Cell cycle analysis (PI, flow cytometry). The following applies: 48 h. It counts as cell-based. As to the method: The influence of metal compounds on cell cycle arrest contributes to their anticancer activity. To determine the effect of C1 on the cell cycle, the distribution of the cell cycle of C1-treated A549 cells was detected using flow cytometry.
The A549 cells were seeded into 10 cm dishes and incubated overnight. Subsequently, the cells were treated with C1 (4 μM and 8 μM). After 48 h, the cells were collected, fixed with 75% ethanol overnight, stained with PI for 20 min, and measured by flow cytometry.

For data set [9], the system named is A549 cells. The experiment in a line: β-Galactosidase staining assay (senescence). Type of data set: cell-based. To be noted: 24 h treatment. As to the method: Senescence is a permanent cellular stage involving cell cycle arrest, which is a potential strategy against cancer. We measured the impact of C1 on cell senescence in A549 cells using a β-galactosidase staining assay. The senescent cells were dyed blue by β-galactosidase.
A549 cells were cultured in 6-well plates and incubated overnight. After C1 treatment for 24 h, the cells were fixed. Then, 20 min later, the cells were washed and stained with β-galactosidase for 48 h. The stained cells were observed and captured using an inverted microscope.

Data set [10] has as its system A549 cells. The experiment in a line: Measurement of cellular ROS (H2DCF-DA, flow cytometry). Type of data set: cell-based. The following applies: 4 μM and 8 μM, 24 h, vs control. As to the method:
A change in the mitochondrial membrane potential results in mitochondrial dysfunction, which can induce reactive oxygen species (ROS) production. Based on the above information, we detected the ROS level in A549 cells using flow cytometry.
The ROS in A549 cells was analyzed by flow cytometry. After pretreatment with C1 (4 μM and 8 μM) for 24 h, the A549 cells were collected and stained with H2DCF-DA. After 20 min, the samples were measured using a flow cytometer.

In data set [11] the test system is A549 cells. The experiment in a line: Comet assay (DNA damage). It counts as cell-based. As to the method: Excessive intracellular ROS can cause DNA damage and cell death. Next, a comet assay was performed to determine whether C1 caused DNA damage. Undamaged DNA cannot migrate, and fluorescence is only confined to the nucleus. In DNA-damaged cells, negatively charged DNA fragments are then released from the nucleus and migrate towards the anode. There was no comet-like cell observed in the control group. In comparison, C1-treated cells with longer tails (white arrows) were observed, and a higher percentage, indicating the existence of severe DNA fragmentation (Figure 7B).
The A549 cells were seed into 6-well plates and treated with C1. A mixture of 10 μL cell suspension and 70 μL low-melting-point agarose (1%) were placed on a glass microscope slide (pre-coated with 1% normal-melting-point agarose) and covered with coverslips. The cells were separate by gel electrophoresis, stained with PI, and captured using an inverted fluorescence microscope.

Another data set has as its system A549 tumor. Nature of the data set: In vivo antitumor experiment in mice bearing A549 tumors. The arrangement: species or system BALB/C nude mice. The following applies: for Tumor growth inhibition rate: two weeks, mice bearing A549 tumors. The method, then:
Based on these promising biological properties, the in vivo therapeutic efficacy of C1 was further investigated in mice bearing A549 tumors. […] Generally, body weight change is considered a key indicator of systemic toxicity.
In addition, TUNEL (terminal deoxynucleotidyl transferase dUTP nick end labeling) staining of tumor tissue sections was performed to examine the effect of C1 on apoptosis in vivo. […] Histological analyses were carried out using H&E (hematoxylin and eosin) staining to evaluate the toxicity of C1 for the major organ.
BALB/C nude mice (6–8 weeks old, 18–22 g) were purchased from Hunan SJA Laboratory Animal Co., Ltd. An amount of 200 μL of A549 cells (containing 2 × 10^6 cells) were subcutaneously injected into the left flank of the mice. The mice were randomly divided into 3 groups when the average tumor size reached 100 mm^3. Then, the mice were treated with saline and C1 (2.5 and 5 mg/kg) for two weeks. C1 was dissolved in saline. During the treatment, the tumor volume and body weight of mice were measured every two days. The major organs (heart, kidney, and liver) and tumor tissues were harvested and sliced for H&E staining and TUNEL staining, respectively.

Procedure for Hela: as §2
Procedure for MCF-7: as §2
Procedure for WI-38: as §2

In [1], `O.O.[Cl][Mn][O]c1cc(Cl)ccc1N=Cc1ccc2ccccc2n1` [C3, 5-chloro-2-N-(2-quinolylmethylene)aminophenoxide-Mn(II)-chloride/dihydrate] showed a Solubility in saline not below 800 µg/mL. For the same compound, the IC50 is more than 40 µM in the data set on MCF-7; more than 40 µM in the data set with Hela; more than 40 µM in data set [2]; more than 40 µM with WI-38; 33.6 ± 0.98 µM in the data set with A549 cells [3] (read-out: IC50 A549, MTT assay).
On to `[Cl][Cu][O]c1cc(Cl)ccc1N=Cc1ccc2ccccc2n1` [C1, 5-chloro-2-N-(2-quinolylmethylene)aminophenoxide-Cu(II)-chloride], for which, in data set [1], the Solubility in saline is not below 1900 µg/mL. Also, the IC50 in the data set with MCF-7 worked out at 5.3 ± 0.35 µM; in the data set with Hela, 6.31 ± 0.32 µM; in data set [2] it was 6.79 ± 0.38 µM; with WI-38 it was 10.2 ± 0.43 µM; in the data set on A549 cells [3] (read-out: IC50 A549, MTT assay) it was 3.93 ± 0.28 µM. Moreover, the “Effect on migration of A549 cells” value in the data set on A549 cells [4] is recorded as “strongly inhibited the migration ability of A549 cells”. Further, in the data set on A549 cells [5], the “Effect on invasion of A549 cells” value was “could inhibit the invasion abilities of A549 cells”. The “ΔΨm of A549 cells reduced by (JC-1)” value with A549 cells [6] stood at 23.7%. Further, the “Population of apoptotic cells” value in the data set on A549 cells [7] (C1 4 μM) is given as 15.0%; in the data set on A549 cells [7] (C1 8 μM), 23.8%. In the data set with CT-DNA, the “DNA binding mode (EB displacement)” value is “binds to DNA in an intercalative binding mode”. The “Percentage of cells in G0/G1 phase” value in the data set with A549 cells [8] (C1 4 μM) is on record as 48.85%; with A549 cells [8] (C1 8 μM) it was 54.45%. Besides, the “Percentage of cells in G2/M phase” value in the data set with A549 cells [8] (C1 4 μM) came to 7.98%; with A549 cells [8] (C1 8 μM), 9.96%. In addition, the “Percentage of cells in S phase” value was 43.17% in the data set with A549 cells [8] (C1 4 μM) and 35.59% in the data set with A549 cells [8] (C1 8 μM). For the same compound, the “Cell senescence (β-galactosidase staining)” value in the data set with A549 cells [9] is recorded as “can induce A549 cell senescence”. In addition, in the data set on A549 cells [10], the “Intracellular ROS level” value is listed as “significantly increased”. In the data set with A549 cells [11], the “DNA damage (comet assay)” value is “induces DNA damage”. The “Tumor growth inhibition rate” value in the data set on A549 tumor (C1 2.5 mg/kg) amounted to 46.3%; in the data set with A549 tumor (C1 5 mg/kg), 63.5%. Besides, the Body weight change entry with A549 tumor (C1 2.5 and 5 mg/kg, vs control group) is on record as “no apparent weight loss”. Moreover, the “Histology of heart, liver, and kidney (H&E staining)” value with A549 tumor (after treatment with C1) was “no pathological alterations or other abnormalities”. Further, in the data set with A549 tumor (tumor tissue sections), the “Apoptosis in tumor tissue (TUNEL staining)” value is “notable cell apoptosis”.
For the compound `Oc1cc(Cl)ccc1/N=C/c1ccc2ccccc2n1` [L, 5-chloro-2-N-(2-quinolylmethylene) aminophenol], the IC50 with MCF-7 (Homo sapiens, MCF7) was more than 40 µM; in the data set on Hela (Homo sapiens, HeLa), more than 40 µM; in data set [2], more than 40 µM; in the data set on WI-38 (Homo sapiens, WI-38), more than 40 µM; with A549 cells [3] (Homo sapiens, A549, read-out: IC50 A549), more than 40 µM.
Regarding `N.N.[Cl][Pt][Cl]` [Cisplatin, reference compound], the half-inhibitory concentration (IC50) in the data set on MCF-7 is 14.5 ± 0.48 µM; with Hela it was 15.3 ± 0.51 µM; in [2] it was more than 40 µM; in the data set on WI-38, 9.61 ± 0.58 µM; in the data set with A549 cells [3] (read-out: IC50 A549, MTT assay) it was 12.5 ± 0.45 µM.
Take “5-chloro-2-N-(2-quinolylmethylene)aminophenoxide-Zn(II)-chloride/pyridine [C2]”: the IC50 in the data set on MCF-7 stood at 23.6 ± 0.98 µM; in the data set on Hela, 22.8 ± 0.8 µM; in data set [2] it was 29.3 ± 0.85 µM; with WI-38, 34 ± 1.06 µM; in the data set on A549 cells [3] (read-out: IC50 A549, MTT assay), 18.3 ± 0.52 µM.
